The values that follow come from patent publication US20230219939A1, “N-(1-CYANO-PYRROLIDIN-3-YL)-5-(3-(TRIFLUOROMETHYL)PHENYL)OXAZOLE-2-CARBOXAMIDE DERIVATIVES AND THE CORRESPONDING OXADIAZOLE DERIVATIVES AS USP30 INHIBITORS FOR THE TREATMENT OF MITOCHONDRIAL DYSFUNCTION” (MISSION THERAPEUTICS LIMITED, priority 2020, published 2023).

pIC50: −log10 of the molar value. Where “and” joins values, the source holds several entries; their conditions need not be identical. Equal values may be shown once. Read-outs that look alike come from different tables or passages of the source.

For data set [1], the target named is Cathepsin B (Homo sapiens, UniProt P07858). The experiment in a line: Cathepsin B IC50. The data set is classed as biochemical.
The target of data set [2] is T1, UCHL1 (Homo sapiens, UniProt P09936).
T1 sequence (P09936 1-223): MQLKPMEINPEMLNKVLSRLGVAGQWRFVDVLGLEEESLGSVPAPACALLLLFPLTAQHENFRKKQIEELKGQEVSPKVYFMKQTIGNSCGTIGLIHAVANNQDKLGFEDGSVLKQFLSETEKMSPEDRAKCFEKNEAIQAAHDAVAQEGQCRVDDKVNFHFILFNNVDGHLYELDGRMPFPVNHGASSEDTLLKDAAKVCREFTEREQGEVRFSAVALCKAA
The experiment in a line: UCHL1 DUB IC50. The format is biochemical.

The target in data set [3] is Cathepsin L (Homo sapiens, UniProt P07711). The experiment in a line: Cathepsin L IC50. The data set is classed as biochemical.
Chain of Cathepsin L (P07711 114-333, species assumed): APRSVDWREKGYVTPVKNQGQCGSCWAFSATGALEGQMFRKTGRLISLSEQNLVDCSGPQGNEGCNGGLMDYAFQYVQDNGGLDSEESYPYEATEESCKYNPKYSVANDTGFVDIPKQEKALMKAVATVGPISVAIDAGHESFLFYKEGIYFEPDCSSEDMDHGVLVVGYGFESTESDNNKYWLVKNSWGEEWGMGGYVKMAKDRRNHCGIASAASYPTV
Data set [4] deals with Cathepsin V (Homo sapiens, UniProt O60911). As to the kind of experiment: Cathepsin V IC50. The format is biochemical.
Chain of Cathepsin V (O60911 114-334, species assumed): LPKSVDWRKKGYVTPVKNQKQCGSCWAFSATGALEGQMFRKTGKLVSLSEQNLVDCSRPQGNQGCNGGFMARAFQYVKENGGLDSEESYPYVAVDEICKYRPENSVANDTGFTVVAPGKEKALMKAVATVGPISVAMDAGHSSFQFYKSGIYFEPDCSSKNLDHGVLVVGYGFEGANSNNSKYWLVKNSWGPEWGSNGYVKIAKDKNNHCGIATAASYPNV
Data set [5] relates to Cathepsins B, K, L, S, V. As to the kind of experiment: Cathepsin panel IC50 (summary over B, K, L, S, V). The format is biochemical. The conditions noted are these: for IC50: range over the five cathepsins.
The target in data set [6] is T2, USP30 (Homo sapiens, UniProt Q70CQ3).
T2 construct: purchased Boston Biochem E582
T2 sequence (Q70CQ3 57-517 limits assumed): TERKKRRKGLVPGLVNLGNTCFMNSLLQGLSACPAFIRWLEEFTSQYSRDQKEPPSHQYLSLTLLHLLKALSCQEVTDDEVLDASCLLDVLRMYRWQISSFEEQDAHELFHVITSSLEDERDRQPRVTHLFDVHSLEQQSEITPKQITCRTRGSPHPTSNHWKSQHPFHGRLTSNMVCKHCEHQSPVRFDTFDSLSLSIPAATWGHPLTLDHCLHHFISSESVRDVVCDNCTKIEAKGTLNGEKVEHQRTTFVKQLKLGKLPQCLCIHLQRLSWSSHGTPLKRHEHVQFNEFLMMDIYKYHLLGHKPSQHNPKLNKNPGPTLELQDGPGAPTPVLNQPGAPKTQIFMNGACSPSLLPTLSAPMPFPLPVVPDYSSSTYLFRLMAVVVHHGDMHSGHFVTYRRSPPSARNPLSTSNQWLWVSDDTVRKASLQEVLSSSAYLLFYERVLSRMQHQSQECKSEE
As to the kind of experiment: USP30 biochemical IC50 assay (fluorescence polarisation). The conditions noted are these: for pIC50: USP30 biochemical IC50 assay, read-out: USP30 IC50; for IC50: read-out: DUB IC50 (μM) USP30. As for the experimental part:
Dilution plates were prepared at 21 times the final concentration (2100 μM for a final concentration of 100 μM) in 50% DMSO in a 96-well polypropylene V-bottom plate (Greiner #651201). A typical 8-point dilution series would be 100, 30, 10, 3, 1, 0.3, 0.1, 0.03 μM final. Reactions were performed in duplicate in black 384 well plates (small volume, Greiner 784076) in a final reaction volume of 21 μl. Either 1 μl of 50% DMSO or diluted compound was added to the plate. USP30 (Boston Biochem #E582) was diluted in reaction buffer (40 mM Tris, pH 7.5, 0.005% Tween 20, 0.5 mg/ml BSA, 5 mM beta-mercaptoethanol) to achieve a final assay concentration of 4 nM, and 10 μl of diluted USP30 was added to the compound. Enzyme and compound were incubated for 30 min at room temp. Reactions were initiated by the addition of 50 nM of TAMRA labelled peptide linked to ubiquitin via an iso-peptide bond as fluorescence polarisation substrate. Reactions were read immediately after addition of substrate and following a 2-hour incubation at room temperature. Readings were performed on a Pherastar Plus (BMG Labtech). λ Excitation 540 nm; λ Emission 590 nm.
On the technique in general: Polarisation of emitted light reports the rotation of a fluorescent probe.

Data set [7] concerns USP2, USP6, USP10, USP16, USP21, USP22, USP25, USP28. As to the kind of experiment: DUB selectivity panel IC50. The format is biochemical.
For data set [8], the target named is Cathepsin S (Homo sapiens, UniProt P25774). The experiment in a line: Cathepsin S IC50. The data set is classed as biochemical.
Chain of Cathepsin S (P25774 115-331, species assumed): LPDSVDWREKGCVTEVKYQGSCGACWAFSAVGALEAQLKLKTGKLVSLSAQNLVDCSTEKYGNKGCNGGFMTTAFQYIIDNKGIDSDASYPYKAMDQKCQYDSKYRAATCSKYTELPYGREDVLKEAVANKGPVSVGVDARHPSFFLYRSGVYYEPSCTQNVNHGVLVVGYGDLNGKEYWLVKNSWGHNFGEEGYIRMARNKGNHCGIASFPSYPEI
Data set [9] is described as follows: Mouse plasma stability. The conditions noted are these: mouse plasma; read-out: Stability Mouse plasma t1/2. The format is in vitro ADME.
The target in data set [10] is T3, Cathepsin K (Homo sapiens, UniProt P43235).
T3 sequence (P43235 115-329): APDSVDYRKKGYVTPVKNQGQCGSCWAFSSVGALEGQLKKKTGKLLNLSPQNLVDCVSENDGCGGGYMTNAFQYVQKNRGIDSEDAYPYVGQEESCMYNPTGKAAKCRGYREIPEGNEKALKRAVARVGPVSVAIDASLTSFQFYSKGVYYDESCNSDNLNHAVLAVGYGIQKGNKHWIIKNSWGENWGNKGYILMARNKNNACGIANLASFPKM
The experiment in a line: Cathepsin K IC50. The data set is classed as biochemical.

For data set [11], the system named is mouse hepatocytes. The experiment in a line: Hepatocyte Cl mouse. The data set is classed as in vitro ADME. As for the experimental part:
Hep Cl mouse: in vitro hepatocyte clearance in mouse cells.
Clu: in vitro clearance. Clu as defined here is the scaled clearance, in turn calculated from the intrinsic clearance. The intrinsic clearance is the predicted clearance due to hepatic metabolic reactions, determined from incubation of a compound in a hepatocyte preparation.

[12] abbreviates: read-out: Cathepsin IC50 (μM) Cathepsin L.
Where [13] appears, read: read-out: Cathepsin IC50 (μM) B, K, L, S, V.
Setting [14] is: range over the eight DUBs, read-out: DUB IC50 (μM) USP2, USP6, USP10, USP16, USP21, USP22, USP25, USP28.
Setting [15] is: read-out: Cathepsin IC50 (μM) Cathepsin U.
[16] abbreviates: read-out: Cathepsin IC50 (μM) B, K, U, S, V.

By IC50 is commonly meant the concentration that gives 50% inhibition. Broadly, the pIC50 is −log10 of the IC50, conventionally taken in molar units. Consider `COC[C@@H]1C[C@@H](NC(=O)c2ncc(-c3cc(C(F)(F)F)ccc3OC3CC3)o2)CN1C#N` [Example 9, N-((3R,5S)-1-cyano-5-(methoxymethyl)pyrrolidin-3-yl)-5-(2-cyclopropoxy-5-(trifluoromethyl)phenyl)-oxazole-2-carboxamide], for which the IC50 in [1] is > 300 µM; in data set [2] it was > 300 µM; in [3] (setting [12]), 18.2 µM; in [4], 101 µM; in data set [5] (setting [13]), ≥ 9.9 µM; in data set [6], 0.004 µM and 0.004 to 0.033 µM. Also, the IC50 in [7] (setting [14]) is 2.9 to 135 µM. In data set [6], the pIC50 is 8.40.

Consider `N#CN1CC[C@H](C(=O)Nc2cn(-c3cccc(C(F)(F)F)c3)cn2)C1` [Reference Example B, reference compound], for which the IC50 was found to be 6.4 µM in data set [8]; 4.6 µM in data set [1]; 0.91 µM in data set [10]; 0.15 µM in data set [2]; 1.1 µM in [3] (setting [15]); 2.5 µM in data set [4]. For the same compound, the IC50 in data set [5] (setting [16]) was 0.91 to 6.4 µM; in data set [6] it was 0.3 µM; in data set [7] (setting [14]), 3.8 to 59.7 µM. The half-life in [9] amounted to 10.4 min. For the same compound, the “fold more potent against USP30 than against cathepsin K” value in data set [10] amounted to 3 fold. In addition, the “DUB selectivity preference for USP30 v UCHL1” value in data set [2] came to 0.5. Besides, in data set [2], the “fold more potent against USP30 than UCHL1” value is 0.5 fold. The “Selectivity preference for USP30 v cathepsins” value in data set [5] was 3.0-21. Further, in [6], the pIC50 is 6.52. Moreover, the “DUB selectivity preference for USP30 v 7/8 DUBs” value in data set [7] (Ref. Ex. A 7 DUBs (exc. USP6), Ref. Ex. B 8 DUBs) is reported as 12.7-199. The “minimum fold more potent against USP30 than against each of the eight DUBs” value in [7] (USP2, USP6, USP10, USP16, USP21, USP22, USP25, USP28, 'A' not tested against USP6) was found to be 12.7 fold. Further, the “Hepatocyte Cl mouse Scaled Clu” value in data set [11] is on record as >121 mL/min/kg.

Take `COC[C@H]1C[C@@H](NC(=O)c2ncc(-c3cccc(C(F)(F)F)c3)o2)CN1C#N` [Example 12, N-((3R,5R)-1-Cyano-5-(methoxymethyl)pyrrolidin-3-yl)-5-(3-(trifluoromethyl)phenyl)oxazole-2-carboxamide]: the 50% inhibitory concentration (IC50) in data set [8] is > 30 µM; in data set [1] it was > 300 µM; in data set [10], > 30 µM; in data set [2], 149 µM; in data set [3] (setting [12]), > 30 µM; in [4], > 30 µM. In addition, the figures for the IC50 in [5] (setting [13]), in [6] and in [7] (setting [14]) were > 30 µM, 0.015 µM and > 300 µM, respectively. The “DUB selectivity preference for USP30 v UCHL1” value in data set [2] was 9933. The “Selectivity preference for USP30 v cathepsins” value in [5] was >2000. In [6], the pIC50 was 7.82. Moreover, the “DUB selectivity preference for USP30 v 8 DUBs” value in data set [7] was >20000.

On to `N#CN1CC[C@@H](NC(=O)c2cc(-c3ccc(C(F)(F)F)cc3)no2)C1` [Reference Example A, reference compound], for which the half-life in [9] is > 120 min. The half-maximal inhibitory concentration (IC50) in data set [1] is 0.85 µM; in data set [3] (setting [15]), 2.1 µM; in data set [4], 7.2 µM; in data set [5] (setting [16]), ≥ 0.73 µM; in data set [6], 0.12 µM; in data set [7] (range over seven DUBs, exc. USP6, read-out: DUB IC50 (μM) USP2, USP6, USP10, USP16, USP21, USP22, USP25, USP28 (exc. USP6)), 0.81 to 3 µM. For the same compound, the pIC50 in [6] was 6.92. In [11], the “Hepatocyte Cl mouse Scaled Clu” value turned out to be 118 mL/min/kg.
